Measurements published in article PMC12566046, “Arylpiperazinyl-Benzocycloheptapyrrole-Carboxamides Endowed with Dual Anticancer and Antiviral Activities” (Molecules, 2025).
Like-named read-outs stand apart in the source and are kept apart here.

What was measured:
[1] = system: SK-MEL-28 (melanoma cell line); experiment: NCI-60 five-dose assay; conditions: for GI50: SK-MEL-28, read-out: Growth inhibition 50 (GI50)
[2] = system: SW-620 (colon cancer cell line); experiment: NCI-60 five-dose assay; format: cell-based, human; conditions: Homo sapiens
[3] = system: SK-MEL-5 (melanoma cell line); experiment: NCI-60 five-dose assay; conditions: for GI50: SK-MEL-5, read-out: Growth inhibition 50 (GI50); for TGI (molar concentration giving total growth inhibition): SK-MEL-5
[4] = system: SF-295 (CNS cancer cell line); experiment: NCI-60 single-dose assay; format: cell-based, human
Outline: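 Human cancer lines from nine tumour types in the NCI-60 panel were exposed to one compound dose, and cytotoxic activity was recorded for each line.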

[5] = system: Colon Cancer panel; experiment: NCI-60 five-dose assay, panel-level GI50 (mean graph midpoint, range); format: cell-based, human; conditions: Homo sapiens
Experimental: (§1) Due to these preliminary results, six compounds, 1, 5, 10, 11, 17, and 20, were selected for the five-dose screen NCI-programme against the same panel of tumour cell lines.
(§2) Next, a mean graph midpoint (MG_MD) was calculated for compounds 1, 5, 10, 11, 17, and 20 and reported as waterfall graphs GI50, TGI, and LC50 in the Supplementary Materials (Figures S69–S86). In Table 9, we reported the average GI50 for the nine-cancer panels, underlining both the activity and selectivity for compounds 1, 10, 11, and 20.

[6] = system: Melanoma panel; experiment: as above; format: cell-based, human; conditions: Homo sapiens
Experimental: as §1, §2

[7] = system: Leukemia panel; experiment: as above; format: cell-based, human; conditions: Homo sapiens
Experimental: as §1, §2

[8] = system: HCT-116 (colon cancer cell line); experiment: NCI-60 five-dose assay; format: cell-based, human; conditions: Homo sapiens, five doses (10^−4–10^−8 M), read-out: Growth inhibition 50 (GI50)
[9] = system: MOLT-4 (leukemia cell line); experiment: NCI-60 five-dose assay; format: cell-based, human; conditions: Homo sapiens, five doses (10^−4–10^−8 M), read-out: Growth inhibition 50 (GI50)
[10] = system: M14 (melanoma cell line); experiment: NCI-60 five-dose assay; conditions: for GI50 / CC50: Homo sapiens; for GI50: M14, read-out: Growth inhibition 50 (GI50); for CC50: M14, read-out: LC50 (molar concentration leading to 50% net cell death); for TGI (molar concentration giving total growth inhibition): M14
[11] = system: MDA-MB-468 (breast cancer); experiment: NCI-60 five-dose assay; format: cell-based, human; conditions: Homo sapiens, five-dose screen
[12] = system: K-562 (leukemia cell line); experiment: NCI-60 five-dose assay; format: cell-based, human; conditions: Homo sapiens, K562, five doses (10^−4–10^−8 M), read-out: Growth inhibition 50 (GI50)
[13] = system: UACC-257 (melanoma cell line); experiment: NCI-60 five-dose assay; conditions: for GI50: UACC-257, read-out: Growth inhibition 50 (GI50); for TGI (molar concentration giving total growth inhibition): UACC-257
[14] = system: SF-295 (CNS cancer); experiment: NCI-60 five-dose assay; format: cell-based; conditions: Homo sapiens, five-dose screen
[15] = system: MALME-3M (melanoma cell line); experiment: NCI-60 five-dose assay; conditions: for GI50 / CC50: Homo sapiens, Malme-3M; for GI50: read-out: Growth inhibition 50 (GI50); for CC50: read-out: LC50 (molar concentration leading to 50% net cell death); for TGI (molar concentration giving total growth inhibition): MALME-3M
[16] = system: UACC-62 (melanoma cell line); experiment: NCI-60 five-dose assay; conditions: for GI50: UACC-62, read-out: Growth inhibition 50 (GI50); for TGI (molar concentration giving total growth inhibition): UACC-62
[17] = system: COLO 205 (colon cancer cell line); experiment: NCI-60 five-dose assay; format: cell-based, human; conditions: Homo sapiens, five doses (10^−4–10^−8 M), read-out: Growth inhibition 50 (GI50)
[18] = system: LOX IMVI (melanoma cell line); experiment: NCI-60 five-dose assay; conditions: for GI50: read-out: Growth inhibition 50 (GI50)
[19] = system: RXF 393 (renal cancer cells); experiment: NCI-60 five-dose assay; format: cell-based, human; conditions: Homo sapiens, five-dose screen
[20] = system: MDA-MB-435 (melanoma cell line); experiment: NCI-60 five-dose assay; conditions: for GI50 / CC50: Homo sapiens; for GI50: MDA-MB-435, read-out: Growth inhibition 50 (GI50); for CC50: MDA-MB-435, read-out: LC50 (molar concentration leading to 50% net cell death); for TGI (molar concentration giving total growth inhibition): MDA-MB-435
[21] = system: RPMI-8226 (leukemia cell line); experiment: NCI-60 five-dose assay; format: cell-based, human; conditions: Homo sapiens, five doses (10^−4–10^−8 M), read-out: Growth inhibition 50 (GI50)
[22] = system: CCRF-CEM (leukemia cell line); experiment: NCI-60 five-dose assay; format: cell-based, human; conditions: Homo sapiens, five doses (10^−4–10^−8 M), read-out: Growth inhibition 50 (GI50)
[23] = system: SK-MEL-2 (melanoma cell line); experiment: NCI-60 five-dose assay; conditions: for GI50 / CC50: Homo sapiens; for GI50: SK-MEL-2, read-out: Growth inhibition 50 (GI50); for CC50: SK-MEL-2, read-out: LC50 (molar concentration leading to 50% net cell death); for TGI (molar concentration giving total growth inhibition): SK-MEL-2
[24] = system: HL-60(TB) (leukemia cell line); experiment: NCI-60 five-dose assay; format: cell-based, human; conditions: Homo sapiens, five doses (10^−4–10^−8 M), read-out: Growth inhibition 50 (GI50)
[25] = system: SR (leukemia cell line); experiment: NCI-60 five-dose assay; format: cell-based, human; conditions: Homo sapiens, five doses (10^−4–10^−8 M), read-out: Growth inhibition 50 (GI50)
[26] = system: HCC-2998 (colon cancer cell line); experiment: NCI-60 five-dose assay; format: cell-based, human; conditions: Homo sapiens, five doses (10^−4–10^−8 M), read-out: Growth inhibition 50 (GI50)
[27] = Colon Cancer panel average, read-out: GI50 mean graph midpoint (MG_MID)
[28] = Melanoma panel average, read-out: GI50 mean graph midpoint (MG_MID)
[29] = five-dose screen, number of cell lines as named in the sentence, read-out: GI50, range over melanoma cell lines
[30] = Leukemia panel average, read-out: GI50 mean graph midpoint (MG_MID)

Compound: CCN1CCC[C@H]1CNC(=O)c1[nH]c2c(c1Cl)CCCc1ccccc1-2 [Compound 1, (S)-3-Chloro-N-(1-ethyl-2-pyrrolidinylmethyl)-5,6-dihydro-4H-benzo[6,7]cyclohepta[1,2-b]pyrrol-2-carboxamide]
- GI50 ([1]; Homo sapiens): 1.87 µM
- CC50 ([1]; Homo sapiens, SK-MEL-28, read-out: LC50 (molar concentration leading to 50% net cell death)): 7.24 µM
- GI50 ([2]; SW-620, read-out: Growth inhibition 50 (GI50)): 1.75 µM
- GI50 ([3]; Homo sapiens): 1.68 µM
- CC50 ([3]; Homo sapiens, SK-MEL-5, read-out: LC50 (molar concentration leading to 50% net cell death)): 5.62 µM
- TGI (molar concentration giving total growth inhibition) [3]: 3.09 µM
- growth inhibition (GI%) and cytotoxicity (negative values) ([4]; human): −24.35%
- GI50 [5, 27]: 2.34 µM
- GI50 ([5]; five-dose screen, read-out: GI50, range over colon cancer cell lines): 1.8 to 3.12 µM
- GI50 [6, 28]: 2.14 µM
- GI50 [6, 29]: 1.54 to 2.03 µM
- GI50 [7, 30]: 2.81 µM
- GI50 ([7]; Leukemia panel, read-out: average GI50 (mean graph midpoint)): 2.82 µM
- GI50 ([7]; five-dose screen, cell lines as named in the sentence, read-out: GI50, range over leukemia cell lines): 1.76 to 5.96 µM
- GI50 [8]: 3.12 µM
- GI50 [9]: 3.57 µM
- GI50 [10]: 2.03 µM
- CC50 [10]: 9.12 µM
- TGI (molar concentration giving total growth inhibition) [10]: 4.36 µM
- GI50 [11]: 2.68 µM
- GI50 [12]: 1.76 µM
- GI50 ([13]; Homo sapiens): 1.88 µM
- CC50 ([13]; Homo sapiens, UACC-257, read-out: LC50 (molar concentration leading to 50% net cell death)): 8.51 µM
- TGI (molar concentration giving total growth inhibition) [13]: 3.98 µM
- GI50 [14]: 1.89 µM
- GI50 [15]: 1.54 µM
- CC50 [15]: 5.62 µM
- TGI (molar concentration giving total growth inhibition) [15]: 2.95 µM
- GI50 ([16]; Homo sapiens): 1.87 µM
- CC50 ([16]; Homo sapiens, UACC-62, read-out: LC50 (molar concentration leading to 50% net cell death)): 8.32 µM
- TGI (molar concentration giving total growth inhibition) [16]: 3.98 µM
- GI50 [17]: 1.8 µM
- TGI (molar concentration giving total growth inhibition) [18]: 3.39 µM
- GI50 ([18]; Homo sapiens): 1.76 µM
- CC50 ([18]; Homo sapiens, read-out: LC50 (molar concentration leading to 50% net cell death)): 6.31 µM
- GI50 [19]: 2.7 µM
- GI50 [20]: 1.76 µM
- CC50 [20]: 5.62 µM
- TGI (molar concentration giving total growth inhibition) [20]: 3.55 µM
- GI50 [21]: 2.29 µM
- GI50 [22]: 5.96 µM
- GI50 [23]: 9.38 µM
- CC50 [23]: 46.8 µM
- TGI (molar concentration giving total growth inhibition) [23]: 21.34 µM
- GI50 [24]: 2.6 µM
- GI50 [25]: 2.29 µM
- GI50 [26]: 2.98 µM

Compound: O=C(NCCCN1CCN(c2ccccc2)CC1)c1cc2c([nH]1)-c1ccccc1CCC2 [Compound 10, N-(3-(4-Phenylpiperazin-1-yl)propyl)-1,4,5,6-tetrahydrobenzo[6,7]cyclohepta[1,2-b]pyrrole-2-carboxamide]
- GI50 ([1]; Homo sapiens): 2.51 µM
- TGI (molar concentration giving total growth inhibition) ([1]; SK-MEL-28): 8.51 µM
- GI50 ([2]; SW-620, five doses (10^−4–10^−8 M), read-out: Growth inhibition 50 (GI50)): 8.89 µM
- GI50 ([3]; Homo sapiens): 2.71 µM
- TGI (molar concentration giving total growth inhibition) [3]: 9.77 µM
- growth inhibition (GI%) and cytotoxicity (negative values) ([4]; SF-295, single-dose assay): 90.84%
- GI50 [5, 27]: 3.98 µM
- GI50 [6, 28]: 4.07 µM
- GI50 [6, 29]: 1.65 to 2.78 µM
- GI50 [7, 30]: 2.95 µM
- GI50 [8]: 4.83 µM
- GI50 [9]: 4.97 µM
- GI50 [10]: 2.78 µM
- CC50 [10]: 44.7 µM
- TGI (molar concentration giving total growth inhibition) [10]: 8.51 µM
- GI50 [11]: 2.93 µM
- GI50 [12]: 2.58 µM
- GI50 ([13]; Homo sapiens): 2.29 µM
- TGI (molar concentration giving total growth inhibition) [13]: 6.61 µM
- GI50 [15]: 1.65 µM
- CC50 [15]: 15.5 µM
- TGI (molar concentration giving total growth inhibition) [15]: 4.36 µM
- GI50 ([16]; Homo sapiens): 9.02 µM
- TGI (molar concentration giving total growth inhibition) [16]: 25.12 µM
- GI50 [17]: 1.92 µM
- TGI (molar concentration giving total growth inhibition) [18]: 19.5 µM
- GI50 ([18]; Homo sapiens): 3.62 µM
- GI50 [19]: 2.06 µM
- GI50 [20]: 7.88 µM
- CC50 [20]: 40.7 µM
- TGI (molar concentration giving total growth inhibition) [20]: 18.62 µM
- GI50 [21]: 3 µM
- GI50 [22]: 8.21 µM
- GI50 [23]: 14.9 µM
- CC50 [23]: 81.3 µM
- TGI (molar concentration giving total growth inhibition) [23]: 34.67 µM
- GI50 [24]: 5.58 µM
- GI50 [25]: 2.29 µM
- GI50 [26]: 2.51 µM

Compound: CCOc1ccccc1N1CCN(CCNC(=O)c2c(Cl)[nH]c3c2CCCc2ccccc2-3)CC1 [Compound 17]
- GI50 [19]: 2.57 µM
